In publication PMC7318243, “Computationally Empowered Workflow Identifies Novel Covalent Allosteric Binders for KRAS^G12C” (Chemmedchem, 2020):

Key:
[1] = tested on: active RAS; assay: Cellular assay for RAS activation (G-LISA); type: cell-based; conditions: 24 h treatment; read-out: Cellular IC50 (inhibition of active RAS formation)
Procedure: SOS1CAT. All steps of the assay were performed at 20 °C. A volume of 2.5 µL of the KRASG12C working solution was added to all wells of the test plate using a Multidrop dispenser (Thermo LabSystems). After 180 min, 2.5 µL of the SOS1CAT working solution was added to all wells, except for the inhibitor control solution wells. After 30 min incubation, HTRF was measured.
In the KRASWT activation by SOS1cat assay, human SOS1CAT mediated loading of GST-KRASWT– GDP was quantified with a fluorescent GTP analogue. The assay was performed as described above for the KRASG12C activation. GST-KRASG12C was replaced by GST-KRASWT, used at a final […]
(§1) 3.4 Covalent binding assay by mass spectrometry
The percentage of covalent adduct formation at KRAS G12C was determined by intact mass determination. To this end, 25 µM recombinant KRAS mutant (G12C , C51S, C80L, C118S) was incubated with 25 µM compound (1% v/v DMSO final concentration) in 50 mM Tris, pH 8.0, 50 mM NaCl at room temperature for 2 h. Reaction mixture (20 µL) was acidified by addi tion of 4% v/v TFA (4 µL). […] Spectra were analyzed by using MassLynx v4.1 software and deconvoluted with the MaxEnt1 algorithm. Percent conversion was determined by the ratio of signal intensities of […] and KRASG12C + inhibitor. […]
Using the G-LISA Kit (Cytoskeleton BK131, RAS Activation Assay), 50000 cells are seeded in a 96 well plate for 72 h at 37 °C (10% FBS, DMEM/Ham's F-12, 2 mM L-Glutamine). […] Finally, the content of active R AS is measured by detecting the absorbance at 490 nm. […]
The percentage of covalent adduct formation at KRASG12C was determined for compounds 1, 2 and 13 by intact mass determination. […]
Liquid chromatography-mass spectrometry (LC-MS) analysis was performed using a Waters SYNAPT G2-S quadrupole time-of-flight mass spectrometer connected to a Waters nanoAcquity UPLC system. […] Spectra were analyzed by using MassLynx v4.1 software and deconvoluted with the MaxEnt1 algorithm. Percent of conversion was determined by the ratio of signal intensiti es of apo-KRAS and KRAS + inhibitor.

[2] = biological target: T1, KRAS^G12C (recombinant KRAS mutant G12C, C51S, C80L, C118S) (Homo sapiens, UniProt P01116, C118S/C51S/C80L/G12C); assay: Covalent binding assay by mass spectrometry (intact mass, % covalent adduct); conditions: 25 µM protein, 25 µM compound, room temperature, 2 h
T1 construct: made in house
Procedure: One of the most synthetically accessible compounds, 1,6‐naphthyridin‐5(6H)‐one (1), was prepared (Table 1; Scheme S1). Structurally close to 1, isoquinolin‐1(2H)‐one 2 derivatives were also considered for the exploration of structure‐activity relationships (SAR). To measure the proportion of inhibitor reacting with Cys12 of the KRAS^G12C mutant, the bound/unbound protein ratio was quantified by mass spectrometry (MS). Then, the inhibition potency of these compounds towards KRAS^G12C was evaluated in biochemical assays measuring the activation of GDP‐bound KRAS^G12C or KRAS^WT by SOS1.19 […]
as §1
The percentage of covalent adduct formation at KRAS G12C was determined by intact mass determination. To this end, 25 µM recombinant KRAS mutant (G12C , C51S, C80L, C118S) was incubated with 25 µM compound (1% v/v DMSO final concentration) in 50 mM Tris, pH 8.0, 50 mM NaCl at room temperature for 2 h. Reaction mixture (20 µL) was acidified by addi tion of 4% v/v TFA (4 µL). LC-MS analysis was performed using a Waters SYNAPT G2 -S quadrupole time -of-flight mass spectrometer connected to a Waters nanoA CQUITY UPLC system. Samples were loaded onto a 2.1 × 5 mm MassPrep C4 guard column (Waters) and desalted with a short gradient (3 min) of increasing concentration of acetonitrile at a flow rate of 100 µL/min. Spectra were analyzed by using MassLynx v4.1 software and deconvoluted with the MaxEnt1 algorithm. Percent conversion was determined by the ratio of signal intensities of […] and KRASG12C + inhibitor. […]

IC50 [1]	MS assay [% binding] (KRAS^G12C bound fraction) [2]	SMILES
> 30 µM	80%	C=CC(=O)N1CCC(c2cc3ncc(-c4c(O)cccc4F)cc3c(=O)[nH]2)C1 (stereo not drawn) [Compound 1, 3-(2-Fluoro-6-hydroxyphenyl)-7-[1-(prop-2-enoyl)pyrrolidin-3-yl]-1,6-naphthyridin-5(6H)-one]
> 30 µM	35%	C=CC(=O)N1CCC(c2cc3ccc(-c4c(O)cccc4F)cc3c(=O)[nH]2)C1 (stereo not drawn) [Compound 2, 7-(2-Fluoro-6-hydroxyphenyl)-3-[1-(prop-2-enoyl)pyrrolidin-3-yl]isoquinolin-1(2H)-one]
22 µM	73%	C=CC(=O)N1CCC(c2cc3cnc(-c4c(O)cccc4F)cc3c(=O)[nH]2)C1 (stereo not drawn) [Compound 13, 7-(2-Fluoro-6-hydroxyphenyl)-3-[1-(prop-2-enoyl)pyrrolidin-3-yl]-2,6-naphthyridin-1(2H)-one]
